The text below walks through data of US12319697B2, “Process for preparing imidazole derivatives” (Bayer Aktiengesellschaft, priority 2018, dated 2025).

The nature of series [1]: log P[n] by reversed-phase HPLC (C18), LC-UV in the neutral range, EEC Directive 79/831 Annex V.A8. Format: physicochemical. To be noted: 79 mg/l ammonium carbonate in water and acetonitrile, gradient 10% to 95% acetonitrile; for chromatographic logP: reversed-phase HPLC column (C18). How it is done: (§1) The log P values were determined according to EEC Directive 79/831 Annex V.A8 by HPLC (high-performance liquid chromatography) on a reversed-phase column (C18) using the following methods: The log P[a] value is determined by LC-UV measurement in the acidic range using 0.9 ml/1 formic acid in water and 1.0 ml/1 formic acid in acetonitrile as mobile phases (linear gradient from 10% acetonitrile to 95% acetonitrile). The log P[n] value is determined by LC-UV measurement in the neutral range using 79 mg/l ammonium carbonate in water and acetonitrile as mobile phases (linear gradient from 10% acetonitrile to 95% acetonitrile). Calibration was carried out using a homologous series of straight-chain alkan-2-ones (having 3 to 16 carbon atoms) with known log P values. The values between successive alkanones are determined by linear regression.

The nature of series [2]: log P[a] by reversed-phase HPLC (C18), LC-UV in the acidic range, EEC Directive 79/831 Annex V.A8. Format: physicochemical. To be noted: 0.9 ml/l formic acid in water and 1.0 ml/l formic acid in acetonitrile, gradient 10% to 95% acetonitrile; for chromatographic logP: reversed-phase HPLC column (C18). How it is done: as §1, with “acetonitrile).” for “acetonitrile). The log P[n] value is determined by LC-UV measurement in the neutral range using 79 mg/l ammonium carbonate in water and acetonitrile as mobile phases (linear gradient from 10% acetonitrile to 95% acetonitrile).”

The structures appear in SMILES notation.

Usually chromatographic logP stands for lipophilicity estimated from chromatographic retention. A higher chromatographic logP goes with higher lipophilicity. Take `CCSc1c(-c2nc3cc(SC(F)(F)F)nnc3n2C)nc(-c2ccc(Cl)cc2)n1C`: the chromatographic logP was found to be 4.34 in series [1] and 4.51 in series [2].

For the molecule `CCSc1c(-c2nc3cc(C(F)(F)C(F)(F)F)nnc3n2C)nc(-c2ccc(Cl)cc2)n1C`, the chromatographic logP in series [1] was 4.6; in series [2] it was 4.82.

For the molecule `CCSc1c(-c2nc3cc(SC(F)(F)F)nnc3n2C)nc(C2CC2)n1C`, the chromatographic logP in series [1] amounted to 3.4; in series [2] it was 3.5.

For `CCSc1c(-c2nc3cc(C(F)(F)C(F)(F)F)nnc3n2C)nc(C2CC2)n1C`, the chromatographic logP in series [1] was determined as 3.75; in series [2], 3.85.

For the molecule `CCSc1c(-c2nc3cc(C(F)(F)C(F)(F)F)nnc3n2C)nc(-c2ccc(Cl)s2)n1C`, the chromatographic logP in series [1] turned out to be 4.92; in series [2] it was 5.14.

For `CCSc1c(-c2nc3cc(C(F)(F)C(F)(F)F)nnc3n2C)nc(-c2ccc(Cl)cn2)n1C`, the chromatographic logP in series [1] was 4.66; in series [2], 5.25.

As for `CCSc1c(-c2nc3cc(C(F)(F)F)nnc3n2C)ncn1C` [Example 1, 6-[5-(ethylsulfanyl)-1-methyl-1H-imidazol-4-yl]-7-methyl-3-(trifluoromethyl)-7H-imidazo[4,5-c]pyridazine], the chromatographic logP amounted to 2.37 in series [1] and 2.26 in series [2].

Regarding `CCSc1c(-c2nc3cc(C(F)(F)F)nnc3n2C)nc(-c2ccc(Cl)cc2)n1C` [Example 2, 6-[2-(4-chlorophenyl)-5-(ethylsulfanyl)-1-methyl-1H-imidazol-4-yl]-7-methyl-3-(trifluoromethyl)-7H-imidazo[4,5-c]pyridazine], in series [1] (listed as Comparative Example), the “log P[n]” value is listed as 4.07. Further, the chromatographic logP in series [1] is 4.08; in series [2], 4.23. The “log P[a]” value in series [2] (listed as Comparative Example) is on record as 4.35.

Turning to `CCSc1c(-c2nc3cc(C(F)(F)C(F)(F)F)nnc3n2C)ncn1C` [Example 3, 6-[5-(ethylsulfanyl)-1-methyl-1H-imidazol-4-yl]-7-methyl-3-(pentafluoroethyl)-7H-imidazo[4,5-c]pyridazine], the values for the chromatographic logP in series [1] and in series [2] were 2.86 and 2.88, respectively.

For the molecule `CCS(=O)(=O)c1c(-c2nc3cc(C(F)(F)C(F)(F)F)nnc3n2C)ncn1C` [Example 4, 6-[5-(ethylsulfonyl)-1-methyl-1H-imidazol-4-yl]-7-methyl-3-(pentafluoroethyl)-7H-imidazo[4,5-c]pyridazine], the chromatographic logP in series [1] turned out to be 2.21; in series [2], 2.2.

In turn, `CCSc1c(-c2nc3cc(C(F)(F)C(F)(F)F)nnc3n2C)nc(Br)n1C` [Example 5, 6-[2-bromo-5-(ethylsulfanyl)-1-methyl-1H-imidazol-4-yl]-7-methyl-3-(pentafluoroethyl)-7H-imidazo[4,5-c]pyridazine] gave a chromatographic logP in series [2] of 3.76.

For the molecule `CCSc1c(-c2nc3cc(C(F)(F)C(F)(F)F)ncc3n2C)ncn1C` [Example 6, 2-[5-(ethylsulfanyl)-1-methyl-1H-imidazol-4-yl]-3-methyl-6-(pentafluoroethyl)-3H-imidazo[4,5-c]pyridine], the chromatographic logP came to 2.71 in series [1] and 2.7 in series [2].

Turning to `CCSc1c(-c2nc3cc(Br)cnc3n2C)nc(C2CC2)n1C` [Example 7, 6-bromo-2-[2-cyclopropyl-5-(ethylsulfanyl)-1-methyl-1H-imidazol-4-yl]-3-methyl-3H-imidazo[4,5-b]pyridine], the chromatographic logP in series [1] worked out at 3.23; in series [2] it was 2.92.

For `CCSc1c(I)ncn1C` [Example 8 Step 1, 5-(ethylsulfanyl)-4-iodo-1-methyl-1H-imidazole], the chromatographic logP in series [1] was 1.91; in series [2], 1.61.

Regarding `CCSc1c(I)nc(Br)n1C` [Example 8 Step 2, 2-bromo-5-(ethylsulfanyl)-4-iodo-1-methyl-1H-imidazole], the chromatographic logP in series [1] was found to be 2.68; in series [2], 2.77.

As to `Cn1cnc2cc(C(F)(F)F)ncc21` [Example 8 Step 3, 3-methyl-6-(trifluoromethyl)-3H-imidazo[4,5-c]pyridine], the chromatographic logP in series [1] came to 1.1; in series [2], 1.04.

Consider `CCSc1c(-c2nc3cc(C(F)(F)F)ncc3n2C)nc(Br)n1C` [Example 8, 2-[2-bromo-5-(ethylsulfanyl)-1-methyl-1H-imidazol-4-yl]-3-methyl-6-(trifluoromethyl)-3H-imidazo[4,5-c]pyridine], for which the chromatographic logP in series [1] was 2.85; in series [2] it was 3.04.
